{
  "source": "patent US20070275962A1",
  "about": "“Heterobicyclic Compounds as Pharmaceutically Active Agents” (GPC BIOTECH AG, priority 2003, published 2007)",
  "note": "Structures can show the parent of a compound that is named as a salt.",
  "data": [
    {"values": [
      {"smiles": "NC(=O)c1c(NC(=O)Nc2ccccc2)sc2c1CCC1(C2)OCCO1", "note": "(as salt: HCl) [Compound D199, 2-[(Anilinocarbonyl)amino]-4,7-dihydro-5H-spiro[1-benzothiophene-6,2′-[1,3]dioxolane]-3-carboxamide]", "melting point": "212 to 213 °C"},
      {"smiles": "NC(=O)c1c(NC(=O)C2CC2)sc2c(Cl)c(OCCO)c(Cl)cc12", "note": "[Compound A49, 5,7-Dichloro-2-(cyclopropanecarbonyl-amino)-6-(2-hydroxyethoxy)-benzo[b]thiophene-3-carboxylic acid amide]", "melting point": "250 to 254 °C"},
      {"smiles": "CCOC(=O)Nc1sc2c(Cl)c(O)c(Cl)cc2c1C(N)=O", "note": "[Compound A120, (3-Carbamoyl-5,7-dichloro-6-hydroxy-benzo[b]thiophen-2-yl)-carbamic acid ethyl ester]", "melting point": "235 to 240 °C"},
      {"smiles": "NS(=O)(=O)c1c(NC(=O)C2CC2)sc2c1CCCC2", "note": "[Compound D86, Cyclopropanecarboxylic acid (3-sulfamoyl-4,5,6,7-tetrahydro-benzo[b]thiophen-2-yl)-amide]", "melting point": "235 to 238 °C (dec.)"},
      {"smiles": "O=C(Nc1sc2c(c1S(=O)(=O)O)CCCC2)C1CC1", "note": "[Compound D216, 2-(Cyclopropanecarbonyl-amino)-4,5,6,7-tetrahydro-benzo[b]thiophene-3-sulfonic acid]", "melting point": "225 to 230 °C (dec.)"}
    ]}
  ]
}
